Results as given in patent US9206245B2, “Immunogenic peptides and methods of use for treating and preventing cancer” (The United States of America, as represented by the …, priority 2005, dated 2015).
Where no end group is shown, it is not given here.

Key:
HLA-B7 = molecular target: T1, HLA-B7 (Homo sapiens, UniProt P01889); assay: T2-B7 binding assay: stabilization of HLA-B7 molecules on the surface of T2-B7 cells, flow cytometry; conditions: for binding affinity for HLA-B7 compared with natural RS10 peptide: FIGS. 4 and 6; for EC50: FIGS. 4 and 6, read-out: concentration required for a 50% increase in HLA-B7 expression
T1 construct: transfected with the HLA-B7 gene; expressed in transfected cells; host or cells: T2 (TAP1/TAP2-deficient hybrid B and T lymphoblastoid cell line) transfected with the HLA-B7 gene (T2.B7, gift of Peter Cresswell)
T1 sequence (P01889 25-362): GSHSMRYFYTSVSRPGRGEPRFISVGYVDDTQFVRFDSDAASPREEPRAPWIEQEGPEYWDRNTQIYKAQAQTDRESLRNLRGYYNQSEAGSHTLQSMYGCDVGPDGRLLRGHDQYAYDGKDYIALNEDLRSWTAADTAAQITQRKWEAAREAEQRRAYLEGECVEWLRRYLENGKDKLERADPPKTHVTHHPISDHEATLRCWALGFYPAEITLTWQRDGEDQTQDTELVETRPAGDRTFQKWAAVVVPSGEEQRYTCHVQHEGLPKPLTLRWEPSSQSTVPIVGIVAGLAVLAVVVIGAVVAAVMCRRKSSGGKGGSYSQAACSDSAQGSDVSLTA
T1 sequence (P61769 21-119 partner): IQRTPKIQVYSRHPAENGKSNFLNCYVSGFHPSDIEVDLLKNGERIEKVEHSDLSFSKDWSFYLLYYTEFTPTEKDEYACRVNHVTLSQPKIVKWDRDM
Procedure: A chromosomal translocation-generated fusion protein breakpoint peptide, RS10 (SPQNSIRHNL), is selected on the basis of predicted potential binding to HLA-B7 (Rammensee et al., Immunogenetics 41: 178-228 (1995)). Peptide binding to HLA-B7 is assessed by using stabilization of HLA-B7 molecules on the surface of T2-B7 cells that lack the TAP transporter and therefore express only short-lived empty HLA-B7 molecules unless a peptide is present that can bind and stabilize them. These assays are described in (Stuber et al., Eur. J. Immunol., 22, 2697-2703 (1992), Nijman et al., Eur. J. Immunol., 23, 1215-1219 (1993), Zeh et al., Hum. Immunol., 39, 79-86 (1994), and Smith et al., Internat. Immunol., 9, 1085-1093 (1997)). Cells of the TAP1/TAP2-deficient T2 cell line (Salter et al., Immunogenetics, 21, 235-246 (1985), and Spies et al., Nature, 351, 323-324 (1991)) transfected with the HLA-B7 gene are suspended in culture medium containing heat inactivated FCS (2.5% v/v) and added to 96-well round-bottomed plates at 2×10^5 cells/well. Human β2-microglobulin (Sigma Chemical Co.) is also added at 20 μg/well. Where appropriate, peptide is added to the desired concentration. The cells are then incubated overnight at 37° C. in 5% CO2, followed by washing with PBS containing NaN3 (0.5% w/v and FCS 2% v/v). Next, cells are incubated on ice for 30 min in the presence of primary anti-HLA-B7 specific antibody (BB7.1 hybridoma culture supernatant; ATCC), followed by washing and incubation for 30 min in goat anti-mouse immunoglobulin FITC (Becton Dickinson). Analysis is performed by flow cytometry.
Conventional mAb staining is conducted in PBS containing 0.01% sodium azide on ice. Cells are labeled with FITC- or PE-conjugated mAbs obtained from BD PharMingen (San Diego, Calif.). For each staining of interest, the appropriate isotype-matched control is included. All reagents are used at optimal concentration as determined experimentally. Flow cytometric analysis is performed with a FACScan (BD Biosciences, Mountain View, Calif.). Data are collected on 5000-10,000 viable cell events and analyzed with CellQuest software.

C1R-B7 target cells = assay: 4 h 51Cr release assay, RS10-specific human CTL line against peptide pulsed C1R-B7 target cells; assay type: cell-based; conditions: peptide pulsed at 10 μM, various E:T ratios, versus control peptide
Procedure: In particular, specific cytotoxic activities are determined in a standard 4 h ^51Cr release assay at various effector:target (E:T) ratios. Briefly, graded doses of viable effector cells are plated in triplicate in 96-well U-bottom culture plates (Corning Glass, Corning, N.Y.) and co-cultured for 4 h with sodium chromate-labeled (100 μCi; NEN, Boston, Mass.) peptide pulsed (10 μM) C1R-B7 target cells. In some experiments, the Rh5, RD and CTR tumor cell lines are used as a target. Supernatants are collected, radioactivity measured, and specific lysis is calculated according to the equation: percentage of specific cytotoxicity=(experimental cpm−spontaneous cpm)/(maximum cpm−spontaneous cpm)×100. Maximum ^51Cr release is determined from supernatants of lysed target cells incubated with Triton X-100 (5% v/v). Spontaneous release is determined from target cells incubated without added effector cells.

Sequence | binding affinity for HLA-B7 compared with natural RS10 peptide (HLA-B7) | EC50 (HLA-B7) [nM] | CTL lysis of peptide pulsed C1R-B7 target cells (C1R-B7 target cells)
SPQNAIRHNL [RS10-5A] | higher binding affinity for HLA-B7 than the natural RS10 peptide |  | 
SPQNSARHNL [RS10-6A] | higher binding affinity for HLA-B7 than the natural RS10 peptide |  | 
SPQNSIRHNL [RS10, SPQNSIRHNL] |  | ~300 | 
SPANSIRHNL [RS10-3A, SPANSIRHNL] | higher binding affinity for HLA-B7 than the natural RS10 peptide | ~50 | specific killing observed
